#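 Following 48 hours of exposure in 96-well plates, responses at five concentrations were used to interpolate endpoints linearly. GI50 is the concentration that inhibits growth by half. At the TGI there is no net growth.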
# Key:
# Experiment in all cases: inhibition of tumour cell growth, NCI panel, 48 h
# BT-549 breast = system: BT-549 breast
# RPMI-8226 leukemia = system: RPMI-8226 leukemia
# A549 NSCLC = system: A549 NSCLC
# NCI-H460 lung = system: NCI-H460 lung
# UACC-257 melanoma = system: UACC-257 melanoma
# SN12C renal = system: SN12C renal
# HS 578T breast = system: HS 578T breast
# TK-10 renal = system: TK-10 renal
# NCI-H226 lung = system: NCI-H226 lung
# UO-31 renal = system: UO-31 renal
# SNB-19 CNS = system: SNB-19 CNS
# HCT-116 colon = system: HCT-116 colon
# A498 renal = system: A498 renal
# IGROV1 ovarian = system: IGROV1 ovarian
# SK-MEL-5 melanoma = system: SK-MEL-5 melanoma
# MOLT-4 leukemia = system: MOLT-4 leukemia
# DU-145 prostate = system: DU-145 prostate
# M14 melanoma = system: M14 melanoma
# HL-60(TB) leukemia = system: HL-60(TB) leukemia
# NCI-H23 lung = system: NCI-H23 lung
# RXF 393 renal = system: RXF 393 renal
# CCRF-CEM leukemia = system: CCRF-CEM leukemia
# SNB-75 CNS = system: SNB-75 CNS
# HOP-62 NSCLC = system: HOP-62 NSCLC
# HOP-92 NSCLC = system: HOP-92 NSCLC
# OVCAR-8 ovarian = system: OVCAR-8 ovarian
# NCI-H522 lung = system: NCI-H522 lung
# UACC-62 melanoma = system: UACC-62 melanoma
# MCF7 breast = system: MCF7 breast
# SR leukemia = system: SR leukemia
# HT29 colon = system: HT29 colon
# K-562 leukemia = system: K-562 leukemia
# SK-MEL-2 melanoma = system: SK-MEL-2 melanoma
# NCI/ADR-RES ovarian = system: NCI/ADR-RES ovarian
# SW-620 colon = system: SW-620 colon
# EKVX NSCLC = system: EKVX NSCLC
# SK-OV-3 ovarian = system: SK-OV-3 ovarian
# ACHN renal = system: ACHN renal
# MDA-MB-435 = system: MDA-MB-435
# HCT-15 colon = system: HCT-15 colon
# SF-539 CNS = system: SF-539 CNS
# CAKI-1 renal = system: CAKI-1 renal
# COLO 205 colon = system: COLO 205 colon
# 786-0 renal = system: 786-0 renal
# OVCAR-3 ovarian = system: OVCAR-3 ovarian
# KM12 colon = system: KM12 colon
# OVCAR-4 ovarian = system: OVCAR-4 ovarian
# T-47D breast = system: T-47D breast
# SF-268 CNS = system: SF-268 CNS
# LOX IMVI melanoma = system: LOX IMVI melanoma
# U251 CNS = system: U251 CNS
# PC-3 prostate = system: PC-3 prostate
# MALME-3M melanoma = system: MALME-3M melanoma
# SK-MEL-28 melanoma = system: SK-MEL-28 melanoma
# HCC-2998 colon = system: HCC-2998 colon
# MDA-MB-231 breast = system: MDA-MB-231 breast
# SF-295 CNS = system: SF-295 CNS
# OVCAR-5 ovarian = system: OVCAR-5 ovarian
smiles,measurement,setting,value
COc1cccc(-n2ncc3c(N/N=C/c4ccc(S(C)(=O)=O)cc4)ncnc32)c1,GI50,BT-549 breast,13.5 µM
same,TGI,BT-549 breast,> 25 µM
same,GI50,RPMI-8226 leukemia,> 22.9 µM
same,TGI,RPMI-8226 leukemia,> 25 µM
same,GI50,A549 NSCLC,9.24 µM
same,TGI,A549 NSCLC,> 25 µM
same,GI50,NCI-H460 lung,6.56 µM
same,TGI,NCI-H460 lung,> 25 µM
same,GI50,UACC-257 melanoma,> 18 µM
same,TGI,UACC-257 melanoma,> 25 µM
same,GI50,SN12C renal,9.88 µM
same,TGI,SN12C renal,> 25 µM
same,GI50,HS 578T breast,0.608 µM
same,TGI,HS 578T breast,7.34 µM
same,GI50,TK-10 renal,8.4 µM
same,TGI,TK-10 renal,> 23.3 µM
same,GI50,NCI-H226 lung,5.46 µM
same,TGI,NCI-H226 lung,18.1 µM
same,GI50,UO-31 renal,5.77 µM
same,TGI,UO-31 renal,14.3 µM
same,GI50,SNB-19 CNS,11.5 µM
same,TGI,SNB-19 CNS,> 25 µM
same,GI50,HCT-116 colon,8.46 µM
same,TGI,HCT-116 colon,> 25 µM
same,GI50,A498 renal,0.75 µM
same,TGI,A498 renal,11.3 µM
same,GI50,IGROV1 ovarian,11 µM
same,TGI,IGROV1 ovarian,> 25 µM
same,GI50,SK-MEL-5 melanoma,3.45 µM
same,TGI,SK-MEL-5 melanoma,> 15.8 µM
same,GI50,MOLT-4 leukemia,> 25 µM
same,TGI,MOLT-4 leukemia,> 25 µM
same,GI50,DU-145 prostate,16.4 µM
same,TGI,DU-145 prostate,> 25 µM
same,GI50,M14 melanoma,5.74 µM
same,TGI,M14 melanoma,> 25 µM
same,GI50,HL-60(TB) leukemia,> 25 µM
same,TGI,HL-60(TB) leukemia,> 25 µM
same,GI50,NCI-H23 lung,11.9 µM
same,TGI,NCI-H23 lung,> 25 µM
same,GI50,RXF 393 renal,2.2 µM
same,TGI,RXF 393 renal,8.76 µM
same,GI50,CCRF-CEM leukemia,> 25 µM
same,TGI,CCRF-CEM leukemia,> 25 µM
same,GI50,SNB-75 CNS,1.89 µM
same,TGI,SNB-75 CNS,4.32 µM
same,GI50,HOP-62 NSCLC,5.85 µM
same,TGI,HOP-62 NSCLC,11.5 µM
same,GI50,HOP-92 NSCLC,7.36 µM
same,TGI,HOP-92 NSCLC,18.7 µM
same,GI50,OVCAR-8 ovarian,6.11 µM
same,TGI,OVCAR-8 ovarian,15.6 µM
same,GI50,NCI-H522 lung,6.78 µM
same,TGI,NCI-H522 lung,20.1 µM
same,GI50,UACC-62 melanoma,3.47 µM
same,TGI,UACC-62 melanoma,> 16.9 µM
same,GI50,MCF7 breast,9.87 µM
same,TGI,MCF7 breast,> 25 µM
same,GI50,SR leukemia,> 12.4 µM
same,TGI,SR leukemia,> 25 µM
same,GI50,HT29 colon,3.49 µM
same,TGI,HT29 colon,10.5 µM
same,GI50,K-562 leukemia,> 6.65 µM
same,TGI,K-562 leukemia,> 25 µM
same,GI50,SK-MEL-2 melanoma,9.94 µM
same,TGI,SK-MEL-2 melanoma,> 25 µM
same,GI50,NCI/ADR-RES ovarian,9.1 µM
same,TGI,NCI/ADR-RES ovarian,> 25 µM
same,GI50,SW-620 colon,> 25 µM
same,TGI,SW-620 colon,> 25 µM
same,GI50,EKVX NSCLC,> 22.9 µM
same,TGI,EKVX NSCLC,> 25 µM
same,GI50,SK-OV-3 ovarian,4.24 µM
same,TGI,SK-OV-3 ovarian,10.7 µM
same,GI50,ACHN renal,6.27 µM
same,TGI,ACHN renal,> 25 µM
same,GI50,MDA-MB-435,3.55 µM
same,TGI,MDA-MB-435,> 25 µM
same,GI50,HCT-15 colon,> 25 µM
same,TGI,HCT-15 colon,> 25 µM
same,GI50,SF-539 CNS,6.22 µM
same,TGI,SF-539 CNS,> 25 µM
same,GI50,CAKI-1 renal,4.81 µM
same,TGI,CAKI-1 renal,> 25 µM
same,GI50,COLO 205 colon,7.64 µM
same,TGI,COLO 205 colon,> 25 µM
same,GI50,786-0 renal,7.1 µM
same,TGI,786-0 renal,20.1 µM
same,GI50,OVCAR-3 ovarian,7.41 µM
same,TGI,OVCAR-3 ovarian,> 23 µM
same,GI50,KM12 colon,6.29 µM
same,TGI,KM12 colon,> 25 µM
same,GI50,OVCAR-4 ovarian,13.1 µM
same,TGI,OVCAR-4 ovarian,> 25 µM
same,GI50,T-47D breast,7.4 µM
same,TGI,T-47D breast,> 21 µM
same,GI50,SF-268 CNS,5.98 µM
same,TGI,SF-268 CNS,13.5 µM
same,GI50,LOX IMVI melanoma,2.34 µM
same,TGI,LOX IMVI melanoma,> 25 µM
same,GI50,U251 CNS,4.99 µM
same,TGI,U251 CNS,17.6 µM
same,GI50,PC-3 prostate,6.63 µM
same,TGI,PC-3 prostate,> 20.9 µM
same,GI50,MALME-3M melanoma,4.21 µM
same,TGI,MALME-3M melanoma,> 25 µM
same,GI50,SK-MEL-28 melanoma,9.26 µM
same,TGI,SK-MEL-28 melanoma,> 25 µM
same,GI50,HCC-2998 colon,12.4 µM
same,TGI,HCC-2998 colon,> 25 µM
same,GI50,MDA-MB-231 breast,9.09 µM
same,TGI,MDA-MB-231 breast,> 24.1 µM
same,GI50,SF-295 CNS,12.3 µM
same,TGI,SF-295 CNS,> 25 µM
same,GI50,OVCAR-5 ovarian,> 25 µM
same,TGI,OVCAR-5 ovarian,> 25 µM
